Test results published in patent US20040161781A1, “Compositions and methods for identifying thymidylate synthase modulators” (priority 2002, published 2004).
“Also recorded” adds a separate entry of the source. *1 amine or outer side, *2 acyl side, *3 side chain or, on linkers, in order; H or OH if unused. Where a SMILES comes first, the peptide text is derived from it. Bridges are numbered along the chain shown (N, C = ends). Roman numbers before positions name the chains, in order. [ ]: non-standard residue; d: D form. Actinocin(9to1) = Cc1c2oc3c(C)ccc(C(=O)[*:1])c3nc-2c(C(=O)[*:2])c(N)c1=O; NMeV = CN[C@H](C(=O)O)C(C)C; Sar = CNCC(=O)O

Legend:
Format in all cases: cell-based, human
[1] = tested on: thymidylate synthase (TS); assay: Down-regulation of TS in H630 cells treated with acyl-homoserine lactones (Western blotting); conditions: overnight (approximately 16 hours)
Source text: FIG. 6. A representation of the ability of acyl homoserine lactones to down-regulate TS in H630 cells.
The signaling molecules produced by the rTS signaling pathway cause a decrease in the amount of TS found in cells. These signaling molecules can simulate the effects of the compound 3-oxo-hexanoyl homoserine lactone in activating the receptor for this compound when it is present in a recombinant bacteria. […] This hypothesis was validated by the results of an experiment portrayed in FIG. 6. Accordingly, the down-regulation of TS in H630 (human colon cancer) cells treated with acyl-homoserine lactones was tested. Cells growing in RPMI 1640 culture medium, supplemented with 10% dialyzed fetal bovine serum at 37° C. in an atmosphere of 95:5 air:CO2. The compounds with the structures shown were added to the cells and allowed to incubate overnight (approximately 16 hours). The cells were extracted and TS measured by Western blotting as described. The compounds from top to bottom are: (1) 3-hydroxy butanoyl homoserine lactone, (2) butanoyl homoserine lactone; (3) 3-oxo-hexanoyl homoserine lactone; (4) d, 1-hexanoyl homoserine lactone, and (5) 1-homoserine lactone. Tubulin is shown as a loading standard.

[2] = tested on: thymidylate synthase (TS); assay: Luciferase induction in H630 cells containing pG3E1-2TBE-Neo by acyl homoserine lactone; conditions: 18 h
Source text: FIG. 7. Induction of luciferase as a function of 3-oxo-6-hexanoyl-homoserine lactone concentrations. H630 cells containing pG3E1-2TBE-Neo were exposed to the indicated concentrations of 3-oxo-6-hexanoyl homoserine lactone for 18 hrs then analyzed for luciferase activity.
FIG. 8. Comparison of 5-fluorouracil (5-FU) and 3-oxo-hexanoyl-homoserine lactone on induction of luciferase. H630 cells containing pG3E1-2TBE-Neo were exposed to the indicated concentrations of each compound for 18 hrs and analyzed for luciferase activity.
H630 cells containing pG3E1-2TBE-Neo were exposed to the indicated concentrations of 3-oxo-6-hexanoyl homoserine lactone for 18 h then analyzed for luciferase activity (FIG. 7).

[3] = tested on: thymidylate synthase (TS); assay: Evaluation of TS expression by Western blotting in H630-C6 cells
Experimental: FIGS. 4a and 4b. Evaluation of TS expression by Western blotting. […] The cells were harvested for Western blots.
This example describes the relationship between TS levels and luciferase production by various known TS inhibitors. Western blotting was performed as previously described (Dolnick and Black, 1996). Briefly, H630-C6 cells were washed with PBS and extracted with RIPA buffer. 10 μg of total protein was resolved by electrophoresis in a 10% SDS-PAGE and was blotted onto a PVDF membrane (Immobilon-P, Millipore, Bedford, Mass.). The membrane was hybridized with rabbit polyclonal antibody against TS (a gift from Dr. Edward Chu, VA Cancer Center, Yale University, West Haven, Conn.) diluted in SuperBlock Blocking Buffer (Pierce, Rockford, Ill.) plus 0.25% Tween 20 for one hour and hybridized with HRP-linked anti-rabbit secondary antibody (Jackson Laboratories) for an additional one hour. The membrane was detected with SuperSignal West Dura Extended Duration Substrate (Pierce, Rockford, Ill.) and was visualized by exposing the blot to Kodak XAR-5 film. […] The resulting signal was detected as described above.
The induction of luciferase activity depends upon the ability to reduce the amount of endogenous TS bound to the TBEs in the recombinant luciferase transcripts. Dissociation of TS from the luciferase reporter mRNA is expected to be accompanied by the removal of TS from TBEs located in other mRNAs as well, such as endogenous TS mRNA. Therefore, an increase in TS is expected to accompany the increase in luciferase. To verify whether a translational mechanism is involved we evaluated the levels of TS from cells treated with the compounds described above by Western blotting.

[4] = tested on: thymidylate synthase (TS); assay: Luciferase assay in stably transfected H630-C6 cells (pG3E1-2TBE-Neo); conditions: H630-C6 cells
Experimental: FIGS. 3a-3j. RLU production in H630-C6 cells in response to TS inhibitors. H630-C6 cells were evaluated for luciferase activity in response to treatment with the indicated compounds. The cells were exposed to the compounds at the indicated concentrations for 18 hr and luciferase assays were then performed according to the manufacturer's instructions. The mean values of triplicates or quadruplicates are shown along with the standard derivations.
This example describes the stable transfection of cells with the DNA construct of the present invention. To facilitate selection of stable transformants, we added a neomycin-resistance gene to the pG3E1-2TBE (FIG. 1) to generate a new plasmid termed pG3E1-2TBE-Neo as follows. For stable transfection, pG3E1-2TBE-Neo was linearized at the ampicillin resistance gene with Ase I and was introduced into H630 cells as described above. At 24 hrs post-transfection, the cells were exposed to 400 μg/ml of G418 for two weeks. Individual clones were picked at that time and screened for their ability to induce luciferase in response to treatment with 5-FU, a known TS inhibitor. Following selection with G418 and evaluation for changes in luciferase activity after exposure of the cells to 5-FU, the cloned subline H630/pG3E1-2TBE-Neo-L1-2-C6 (H630-C6) was chosen for further study.
The stably transfected H630-C6 cell line was maintained in RPMI 1640 plus 10% dialyzed FBS and 400 μg/ml of geneticin (G418). For luciferase assays, 2×10^4 cells were seeded in each well of a 24-well plate in RPMI 1640 medium plus 10% FBS without G418 and were allowed to attach at least six hr, followed by drug exposure overnight (approximately 18 hr). The cells were then washed with PBS (137 mM NaCl, 2.7 mM KCl, 4.3 mM Na2HPO4, 1.4 mM KH2PO4, pH 7.4), lysed with Passive Lysis Buffer (Promega, Madison) and assayed for luciferase activity using the Luciferase Assay System (Promega, Madison, Wis.) according to the manufacturer's instructions. Relative light units (RLU) were measured with a Lumat LB 9501 luminometer (EG & G Berthold, Wildbad, Germany).
To test H630-C6 as a tool to identify TS modulators three different classes of compounds, i.e., specific or predominantly specific TS inhibitors, agents that inhibit folate pathways or inhibit TS as well as having other targets, and agents that act through TS unrelated sites of action were evaluated for their ability to induce changes in luciferase activity.

TS mRNA = assay: Evaluation of TS mRNA expression by RT-PCR in H630-C6 cells; conditions: 18 hr exposure
Experimental: FIGS. 5a and 5b. Evaluation of TS mRNA expression by RT-PCR. H630-C6 cells were exposed to the indicated compounds for 18 hr and total RNA was obtained for RT-PCR. Results are shown for 35 cycles of amplification. […] Similar results were obtained at lower cycles (data not shown).
This example describes the TS mRNA levels in the presence of various TS inhibitors. RNA was prepared using an RNAqueous kit (Ambion, Austin, Tex.). Reverse transcription was done using a Cells-to-cDNA kit (Ambion, Austin, Tex.). Polymerase chain reaction (PCR) was performed as described previously (Dolnick et al., 1992). Primers used for TS mRNA are 5′-TTTGGACAGCCTGGGATTCTC-3′ (Sense—SEQ ID NO:6) and 5′-AAAGCACCCTAAACAGCCATT-3′ (antisense—SEQ ID NO:7), generated a 600-bp PCR product. Primers used for β-actin are 5′-CAGCTCACCATGGATGATGATA-3′ (sense—SEQ ID NO:8) and 5′-CCA GAC GCA GGA TGG CAT-3′ (antisense—SEQ ID NO:9), generated a 543-bp PCR product. The PCR cycling condition used was: 95° C. for 30 seconds, 60° C. for 30 seconds, 72° C. for 1 minute, repeated for 25, 30 and 35 cycles (for TS) or 20, 25 and 30 cycles (for β-actin). Product formation was evaluated by ethidium bromide staining and was resolved by electrophoresis in 1.5% agarose gels.

Compound | down-regulation of TS (Western blotting), in words [1] | luciferase activity as a function of concentration [2] | TS protein level by Western blotting ([3]; H630-C6 cells, 18 hr treatment) | TS levels as a function of time (time course) ([3]; by 24 hr, data not shown) | increase of luciferase ([4]; 50 μM, 18 hr) | change in luciferase activity (RLU), in words ([4]; 18 hr exposure) | TS mRNA level by RT-PCR (TS mRNA)
CCCC(=O)CC(=O)N[C@H]1CCOC1=O [3-oxo-hexanoyl homoserine lactone] | most active of all the compounds shown | increased the luciferase activity | – | – | – | – | –
Cc1c2oc3c(C)ccc(C(=O)N[C@@H]4C(=O)N[C@H](C(C)C)C(=O)N5CCC[C@H]5C(=O)N(C)CC(=O)N(C)[C@@H](C(C)C)C(=O)O[C@@H]4C)c3nc-2c(C(=O)N[C@@H]2C(=O)N[C@H](C(C)C)C(=O)N3CCC[C@H]3C(=O)N(C)CC(=O)N(C)[C@@H](C(C)C)C(=O)O[C@@H]2C)c(N)c1=O [Act D, actinomycin D] (I: T[dV]P[Sar][NMeV] / II: T[dV]P[Sar][NMeV]; ester I:1-I:C, II:1-II:C; linker I:N-II:N via Actinocin(9to1)) | – | – | no increase of TS protein; also recorded: did not induce TS levels | dropped | up to 3.5 fold | concentration-dependent increase of RLU | not altered
